Several values for one entry are separate records, joined by “and”; a condition that tells them apart may be missing. Equal entries are not always repeated.
Assays:
[1] = rats, orally; cited from earlier work
[2] = cold water; cited from earlier work
ALL-SCID 4 = test: Anticancer activity in human leukemia model ALL-SCID 4; details: for BW loss % (day) / Drug-related deaths / T/C %: days 25-35
Description: Anticancer activity of the sodium meta-arsenite and arsenic trioxide against two human paediatric acute lymphoblastic leukemia (ALL) models in vivo, ALL-SCID 4 was investigated to compare.
Male NOD/SCID mice (deficient in T and B lymphocytes, NK cells and functional macrophages) were transplanted s.c. on day 0 with fragments of ALL-SCID 4 cancers, which were obtained from mice used for routine passage of the cancers. Mice were randomized to the scheduled treatment groups.
Sodium meta-arsenite was administered orally at 2, 4 and 6 mg/kg/day (⅓ MTD, ⅔ MTD and MTD) once every day from day 34-54 after transplantation. The vehicle control (5% glucose in water) was administered i.p. (10 ml/kg).
Sodium meta-arsenite was dissolved in ready-to-use sterile infusion (5% (w/v) glucose in aqua injectabila). Arsenic trioxide was dissolved in 25 mM NaOH then dissolved in 5% glucose in aqua injectabila. The solutions were prepared freshly on the day of therapy for each administration.

[3] = test system: panel of forty-one (41) human cancer cell lines; test: Cytotoxic activity, panel of forty-one (41) human cancer cell lines
Description: In a next study, the cytotoxic activity of sodium meta-arsenite was head-to-head compared with arsenic trioxide in panels loaded with 41 cancer cell lines from ten human cancers.

RXF 944LX = test: Dose finding study in human renal cancer model RXF 944LX in nude mice (i.p. days 0, 7, 14); details: for BW loss % (day) / Drug-related deaths / Rating / SGD (specific growth delay) / T/C %: days 0, 7, 14
Description: In a dose finding study, the potential anticancer activity of sodium meta-arsenite and arsenic acid sodium salt versus arsenic trioxide was examined in the human renal cancer model, RXF 944LX.
Cancer fragments (1-2 mm in diameter), obtained from xenografts in serial passage in nude mice, were implanted subcutaneously (S.C.) in a flank of male NRMI nude mice (one fragment per mouse). Mice with appropriate cancer volumes (5-7 mm in diameter) were randomly distributed to treatment and control groups (4 mice/group). The start of treatment was day 0. Cancer volume and body weights were measured at least twice per week.
1) Sodium meta-arsenite (3, 10, 30 mg/kg/day), 2) Arsenic acid sodium salt (3, 10, 30 mg/kg/day) and 3) Arsenic trioxide (3, 10, 30 mg/kg/day) were administered intraperitoneally (i.p.) once daily on days 0, 7 and 14.
Stock solution of sodium meta-arsenite and arsenic acid sodium salt (3 mg/ml) were prepared in 5% (w/v) dextrose solution, respectively, to minimize acute arsenic toxicity. For arsenic trioxide, 9 mg of arsenic trioxide was dissolved in 1M NaOH (75 μl) followed by mixing with sterile aqua injectabilia (2175 μl) and sterile 20% (w/v) dextrose in water (500 μl). Further dilution to the desired concentration was done with a 5% dextrose solution to give a final concentration of 3 mg/ml.
The cancer volume of each animal was determined by two-dimensional measurement using calipers. The volume was calculated according to the formula: (a×b^2)×0.5; wherein a and b represent two perpendicular diameters in which a (length) is the larger diameter and b (width) the smaller diameter.
Relative cancer volumes (RCV) were calculated for each individual cancer by dividing the cancer volume on day X by the cancer volume on day 0 multiplied by 100%. The cancer volume of a treatment group was expressed as the median RCV of all mice of the group. Median RCV values were used for drawing growth curves and treatment evaluation. Optimal cancer growth inhibition at a particular day within the treatment period was calculated from the median RCV values of the treated (T) versus the controlled (C) group multiplied by 100%. A T/C value<50% was considered as anti-cancer activity.

[4] = panel of 41 human cancer cell lines
[5] = 10 mg/kg i.p., listed as arsenic trioxide

## arsenic trioxide
[1]
  LD50: 15.1 mg/kg
[2]
  Solubility: sparingly and extremely slowly soluble
ALL-SCID 4; 2 mg/kg i.p.
  BW loss % (day): +9 (34) %
  Drug-related deaths: 0/8
  T/C %: 71%
ALL-SCID 4; 4 mg/kg i.p.
  BW loss % (day): +10 (34) %
  Drug-related deaths: 0/8
  T/C %: 97%
ALL-SCID 4; 6 mg/kg i.p.
  BW loss % (day): +10 (34) %
  Drug-related deaths: 0/8
  T/C %: 58%
ALL-SCID 4; small dose finding studies prior to the ALL-SCID 4 study
  MTD: 6 mg/kg/day
[3]; 0.1 μg/ml, 0.01 μg/ml and 0.001 μg/ml
  activity in panel of 41: no observed activity
[3]; 1 μg/ml, more than 70% growth inhibition
  cancer cell lines that responded, percent of 41: 2%
[3]; 10 μg/ml
  cancer cell lines in which active, percent of 41: 56%
[3]; breast (mammary) cancer cell lines
  selectivity (individual IC70<½ mean IC70), fraction of cell lines: ¼
[3]; leukemia cell lines
  selectivity (individual IC70<½ mean IC70), fraction of cell lines: ¾
[3]; melanoma cell lines
  selectivity (individual IC70<½ mean IC70), fraction of cell lines: 2/7
[3]; on the basis of μM
  fold less potent compared to sodium meta-arsenite, IC50: 17 fold
  fold less potent compared to sodium meta-arsenite, IC70: 12 fold
[3]; on μg/ml
  fold less potent compared to sodium meta-arsenite, IC50: 27 fold
  fold less potent compared to sodium meta-arsenite, IC70: 18 fold
[3]; [4]
  Mean IC50: 3.462 µg/mL
  Mean IC70: 6.022 μg/ml and 30.44 μM
  Mean IC90: 10.307 µg/mL
[3]; panel of 41 human cancer cell lines, listed as arsenic trioxide
  Mean IC70: 6.022 μg/ml and 30.44 μM
[3]; read-out: Mean IC50, panel of 41 human cancer cell lines
  IC50: 17.5 µM
[3]; read-out: Mean IC90, panel of 41 human cancer cell lines
  IC90: 52.1 µM
RXF 944LX; 3 mg/kg i.p.
  BW loss % (day): +8.4 (14) %
  Drug-related deaths: 0/4
  Rating: + (+T/C < 50)
  SGD (specific growth delay): −0.1
  T/C %: 31%
RXF 944LX; 10 mg/kg i.p.
  BW loss % (day): −5.0 (11) %
  Drug-related deaths: 1/4
  Rating: + (+T/C < 50)
  SGD (specific growth delay): −0.2
  T/C %: 41%
RXF 944LX; [5]
  BW loss % (day): 5%
  Drug-related deaths: one (1) out of four (4) mice died
RXF 944LX; 30 mg/kg i.p.
  Drug-related deaths: 4/4
RXF 944LX; 30 mg/kg i.p., listed as arsenic trioxide
  Drug-related deaths: died within a few days after the first injection
RXF 944LX; i.p. once daily on days 0, 7 and 14, RXF 944LX bearing nude mice
  Maximum Tolerated Dose (MTD): 10 mg/kg/day
